Experiment [1] deals with Human cGAS amino acids 155-522 (Homo sapiens (Human), UniProt Q8N884). Kind of experiment: cGAS biochemical activity assay (ATP remaining, Kinase-Glo Max luminescence). The following applies: human cGAS 155-522, ATP remaining (Kinase-Glo Max); read-out: cGAS IC50. In general terms: In Kinase-Glo more light means more ATP remaining.
Experiment [2] deals with RANTES/CCL5 secretion by Trex1-KO BMM. Kind of experiment: Inhibition of RANTES/CCL5 secretion by Trex1-KO bone marrow-derived macrophages. The format is cell-based, mice. Further details: key to BMM IC50 R (RANTES): A: an IC50 value less than 5 μM; B: an IC50 value between 5 and 20 μM; where an IC50 value could not be calculated from the data. The following applies: RANTES secretion; for IC50: Mus musculus, Macrophage, read-out: BMM IC50 R (RANTES). Summed up: (§1)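 Bone marrow macrophages from Trex1-KO mice, differentiated with M-CSF, 1×10^5 cells/well, treated overnight at 37 °C with a compound dilution series in FBS-free medium. Secreted cytokine measured by cytometric bead array from a standard curve, normalized to DMSO; viability by CellTiter-Glo.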

In experiment [3] the test system is cGAS/STING pathway in THP1 cells. As to the kind of experiment: THP1 cell-based cGAS/STING pathway activity assay (IRF-3-linked luciferase reporter). The settings on record: Homo sapiens, THP-1. Summed up: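 THP1 cells carrying an IRF-3-driven luciferase reporter were read across a range of compound concentrations, and IC50 values were derived from these concentration responses; the assay upper limit was 100 μM.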
In general terms: A reporter such as luciferase makes a cellular process visible.

The subject of experiment [4] is MCP-1/CCL2 secretion by Trex1-KO BMM. As to the kind of experiment: Inhibition of MCP-1/CCL2 secretion by Trex1-KO bone marrow-derived macrophages. Set-up: key to BMM IC50 M (MCP-1): A: an IC50 value less than 5 μM; B: an IC50 value between 5 and 20 μM; where an IC50 value could not be calculated from the data. The settings on record: MCP-1 secretion; for IC50: Mus musculus, Macrophage, read-out: BMM IC50 M (MCP-1). The format is cell-based, mice. Summed up:
as §1

In general, IC50 refers to the point on the concentration scale where inhibition reaches its midpoint.

Chain of Human cGAS amino acids 155-522 (Q8N884 157-522): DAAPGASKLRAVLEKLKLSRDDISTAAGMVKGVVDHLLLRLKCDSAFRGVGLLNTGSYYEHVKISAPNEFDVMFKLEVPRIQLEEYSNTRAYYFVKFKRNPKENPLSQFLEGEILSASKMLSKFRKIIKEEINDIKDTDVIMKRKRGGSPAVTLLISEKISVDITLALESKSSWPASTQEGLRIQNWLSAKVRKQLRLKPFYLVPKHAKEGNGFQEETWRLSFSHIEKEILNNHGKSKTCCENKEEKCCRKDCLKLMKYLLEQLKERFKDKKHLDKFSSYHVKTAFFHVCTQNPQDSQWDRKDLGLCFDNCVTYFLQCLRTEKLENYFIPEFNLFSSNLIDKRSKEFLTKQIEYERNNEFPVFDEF

Turning to `Cc1[nH]c2c(-c3ccccc3)c(C(F)(F)F)nn2c(=O)c1-c1nc(C(=O)O)c(C2CCCCC2)o1` [Compound C1169, 5-cyclohexyl-2-(5-methyl-7-oxo-3-phenyl-2-(trifluoromethyl)-4,7-dihydropyrazolo[1,5-a]pyrimidin-6-yl)oxazole-4-carboxylic acid], the IC50 in experiment [1] was less than 20 µM; in experiment [3], 20 to 100 µM. For the same compound, the “BMM IC50 R (RANTES)” value in experiment [2] is given as “C”. Further, the “BMM IC50 M (MCP-1)” value in experiment [4] is “C”.
Regarding `COc1cc(N)cc2oc(-c3c(C)[nH]c4c(-c5ccccc5)c(C(F)(F)F)nn4c3=O)nc12` [Compound C1123, 6-(6-amino-4-methoxybenzo[d]oxazol-2-yl)-5-methyl-3-phenyl-2-(trifluoromethyl)pyrazolo[1,5-a]pyrimidin-7(4H)-one], the results for the IC50 in experiment [1] and in experiment [3] were less than 20 µM and 20 to 100 µM, respectively. The “BMM IC50 R (RANTES)” value in experiment [2] is “C”. Besides, the “BMM IC50 M (MCP-1)” value in experiment [4] is “C”.
For the compound `COc1cccc2oc(-c3c(C)[nH]c4c(-c5cc(F)cc(F)c5)c(C(F)(F)F)nn4c3=O)nc12` [Compound C1119, 3-(3,5-difluorophenyl)-6-(4-methoxybenzo[d]oxazol-2-yl)-5-methyl-2-(trifluoromethyl)pyrazolo[1,5-a]pyrimidin-7(4H)-one], the IC50 in experiment [1] and in experiment [3] was less than 20 µM each time. Besides, the “BMM IC50 R (RANTES)” value in experiment [2] was “C”. The “BMM IC50 M (MCP-1)” value in experiment [4] is “C”.
For the compound `Cc1[nH]c2c(-c3ccccc3)c(C(F)(F)F)nn2c(=O)c1-c1nc2c(OCC3CC3)cccc2o1` [Compound C1045, 6-(4-(cyclopropylmethoxy)benzo[d]oxazol-2-yl)-5-methyl-3-phenyl-2-(trifluoromethyl)pyrazolo[1,5-a]pyrimidin-7(4H)-one], the IC50 in experiment [1] is less than 20 µM; in experiment [2], 5 to 20 µM; in experiment [3] it was less than 20 µM. Further, in experiment [4], the “BMM IC50 M (MCP-1)” value is on record as “C”.
On to `COc1ccc(Cl)c2oc(-c3c(C)[nH]c4c(-c5ccccc5)c(C(F)(F)F)nn4c3=O)nc12` [Compound C1094, 6-(7-chloro-4-methoxybenzo[d]oxazol-2-yl)-5-methyl-3-phenyl-2-(trifluoromethyl)pyrazolo[1,5-a]pyrimidin-7(4H)-one], for which the IC50 in experiment [1] is less than 20 µM; in experiment [2], less than 5 µM; in experiment [3] it was less than 20 µM. Moreover, the “BMM IC50 M (MCP-1)” value in experiment [4] is reported as “C”.
With `COc1cc(N)cc2oc(-c3c(C)[nH]c4c(-c5ccccc5)c(C#N)nn4c3=O)nc12` [Compound C1175, 6-(6-amino-4-methoxybenzo[d]oxazol-2-yl)-5-methyl-7-oxo-3-phenyl-4,7-dihydropyrazolo[1,5-a]pyrimidine-2-carbonitrile], the IC50 is less than 20 µM in experiment [1] and 20 to 100 µM in experiment [3]. In experiment [2], the “BMM IC50 R (RANTES)” value is reported as “C”. In addition, the “BMM IC50 M (MCP-1)” value in experiment [4] is “C”.
For `COc1cccc2oc(-c3c(C)[nH]c4c(-c5cccc(F)c5)c(C(F)(F)F)nn4c3=O)nc12` [Compound C1114, 3-(3-fluorophenyl)-6-(4-methoxybenzo[d]oxazol-2-yl)-5-methyl-2-(trifluoromethyl)pyrazolo[1,5-a]pyrimidin-7(4H)-one], the IC50 is less than 20 µM in experiment [1], less than 20 µM in experiment [3] and 5 to 20 µM in experiment [4]. In addition, in experiment [2], the “BMM IC50 R (RANTES)” value is “C”.
As for `CCOC(=O)C1CC=C(c2[nH]c3c(-c4ccccc4)c(C(F)(F)F)nn3c(=O)c2-c2nc3c(OC)cccc3o2)CC1` (stereo not shown) [Compound C1233, ethyl 4-(6-(4-methoxybenzo[d]oxazol-2-yl)-7-oxo-3-phenyl-2-(trifluoromethyl)-4,7-dihydropyrazolo[1,5-a]pyrimidin-5-yl)cyclohex-3-ene-1-carboxylate], the IC50 in experiment [1] and in experiment [3] was less than 20 µM each time. In addition, in experiment [2], the “BMM IC50 R (RANTES)” value is listed as “C”. Further, the “BMM IC50 M (MCP-1)” value in experiment [4] was “C”.
Consider `Cc1[nH]c2c(-c3ccccc3)c(C(F)(F)F)nn2c(=O)c1C(=O)Nc1nc(C2CC2)cs1` [Compound A1095, N-(4-cyclopropylthiazol-2-yl)-5-methyl-7-oxo-3-phenyl-2-(trifluoromethyl)-4,7-dihydropyrazolo[1,5-a]pyrimidine-6-carboxamide], for which the IC50 in experiment [1] and in experiment [3] was less than 20 µM throughout. Also, in experiment [2], the “BMM IC50 R (RANTES)” value was “C”. Also, in experiment [4], the “BMM IC50 M (MCP-1)” value was “C”.
As for `CO[C@@](c1ccccc1)(c1nnc(-c2c(C)[nH]c3c(-c4ccccc4)c(C(F)(F)F)nn3c2=O)o1)C(F)(F)F` [Compound D1028, (S)-5-methyl-3-phenyl-6-(5-(2,2,2-trifluoro-1-methoxy-1-phenylethyl)-1,3,4-oxadiazol-2-yl)-2-(trifluoromethyl)pyrazolo[1,5-a]pyrimidin-7(4H)-one], the IC50 in experiment [1] is less than 20 µM; in experiment [3] it was more than 100 µM. Also, the “BMM IC50 R (RANTES)” value in experiment [2] is “C”. Besides, the “BMM IC50 M (MCP-1)” value in experiment [4] is on record as “C”.
Turning to `COc1cccc2oc(-c3c(SC)[nH]c4c(-c5ccccc5)c(C(F)(F)F)nn4c3=O)nc12` [Compound C1121, 6-(4-methoxybenzo[d]oxazol-2-yl)-5-(methylthio)-3-phenyl-2-(trifluoromethyl)pyrazolo[1,5-a]pyrimidin-7(4H)-one], the IC50 in experiment [1] is less than 20 µM; in experiment [3], less than 20 µM; in experiment [4], less than 5 µM. For the same compound, the “BMM IC50 R (RANTES)” value in experiment [2] was “C”.
As to `COc1cccc2oc(-c3c(Cl)[nH]c4c(-c5ccccc5)c(C(F)(F)F)nn4c3=O)nc12` [Compound C1071, 5-chloro-6-(4-methoxybenzo[d]oxazol-2-yl)-3-phenyl-2-(trifluoromethyl)pyrazolo[1,5-a]pyrimidin-7(4H)-one], the IC50 in experiment [1] and in experiment [3] was less than 20 µM throughout. Moreover, the “BMM IC50 R (RANTES)” value in experiment [2] was “C”. The “BMM IC50 M (MCP-1)” value in experiment [4] was “C”.
In the case of `COc1ccc(C)c2oc(-c3c(C)[nH]c4c(-c5ccccc5)c(C(F)(F)F)nn4c3=O)nc12` [Compound C1092, 6-(4-methoxy-7-methylbenzo[d]oxazol-2-yl)-5-methyl-3-phenyl-2-(trifluoromethyl)pyrazolo[1,5-a]pyrimidin-7(4H)-one], the IC50 is less than 20 µM in experiment [1] and more than 100 µM in experiment [3]. Besides, in experiment [2], the “BMM IC50 R (RANTES)” value is reported as “C”. Further, the “BMM IC50 M (MCP-1)” value in experiment [4] is “C”.
Consider `COCc1[nH]c2c(-c3ccccc3)c(C(F)(F)F)nn2c(=O)c1-c1nnc(C2CCCC2)o1` [Compound D1018, 6-(5-cyclopentyl-1,3,4-oxadiazol-2-yl)-5-(methoxymethyl)-3-phenyl-2-(trifluoromethyl)pyrazolo[1,5-a]pyrimidin-7(4H)-one], for which the IC50 in experiment [1] is less than 20 µM; in experiment [3] it was 20 to 100 µM. In experiment [2], the “BMM IC50 R (RANTES)” value is “C”. In experiment [4], the “BMM IC50 M (MCP-1)” value is “C”.
With `Cc1[nH]c2c(-c3ccccc3)c(C(F)(F)F)nn2c(=O)c1-c1nc2c(Cl)cccc2o1` [Compound C1055, 6-(4-chlorobenzo[d]oxazol-2-yl)-5-methyl-3-phenyl-2-(trifluoromethyl)pyrazolo[1,5-a]pyrimidin-7(4H)-one], the IC50 in experiment [1] and in experiment [3] was less than 20 µM in each case. In addition, the “BMM IC50 R (RANTES)” value in experiment [2] is “C”. Moreover, the “BMM IC50 M (MCP-1)” value in experiment [4] is “C”.
As to `COc1nccc2oc(-c3c(C)[nH]c4c(-c5ccccc5)c(C#N)nn4c3=O)nc12` [Compound C1167, 6-(4-methoxyoxazolo[4,5-c]pyridin-2-yl)-5-methyl-7-oxo-3-phenyl-4,7-dihydropyrazolo[1,5-a]pyrimidine-2-carbonitrile], the IC50 in experiment [1] and in experiment [3] was less than 20 µM each time. Also, the “BMM IC50 R (RANTES)” value in experiment [2] is given as “C”. Besides, the “BMM IC50 M (MCP-1)” value in experiment [4] is “C”.
As for `COc1ccc(Cl)c2oc(-c3c(C)[nH]c4c(-c5ccccc5)c(C#N)nn4c3=O)nc12` [Compound C1205, 6-(7-chloro-4-methoxybenzo[d]oxazol-2-yl)-5-methyl-7-oxo-3-phenyl-4,7-dihydropyrazolo[1,5-a]pyrimidine-2-carbonitrile], the IC50 in experiment [1] is less than 20 µM; in experiment [3], more than 100 µM. The “BMM IC50 R (RANTES)” value in experiment [2] is on record as “C”. In addition, the “BMM IC50 M (MCP-1)” value in experiment [4] is listed as “C”.
Regarding `COc1cccc2oc(-c3c(C(F)(F)F)[nH]c4c(-c5ccccc5)c(C(F)(F)F)nn4c3=O)nc12` [Compound C1077, 6-(4-methoxybenzo[d]oxazol-2-yl)-3-phenyl-2,5-bis(trifluoromethyl)pyrazolo[1,5-a]pyrimidin-7(4H)-one], the IC50 in experiment [1] and in experiment [3] was less than 20 µM each time. The “BMM IC50 R (RANTES)” value in experiment [2] is on record as “C”. Moreover, the “BMM IC50 M (MCP-1)” value in experiment [4] is “C”.
Take `CSc1cccc2oc(-c3c(C)[nH]c4c(-c5ccccc5)c(C(F)(F)F)nn4c3=O)nc12` [Compound C1047, 5-methyl-6-(4-(methylthio)benzo[d]oxazol-2-yl)-3-phenyl-2-(trifluoromethyl)pyrazolo[1,5-a]pyrimidin-7(4H)-one]: the IC50 in experiment [1] is less than 20 µM; in experiment [2], less than 5 µM; in experiment [3] it was less than 20 µM; in experiment [4], 5 to 20 µM.

The values are drawn from US10738056B2 (Aduro BioTech, Inc., priority 2017, dated 2020).
